Non-standard residues stand in square brackets, D forms with d. Residues, ends and D or L forms follow the SMILES beside them.
How the values were obtained:
[1] = tested on: Pancreatic enzyme mix: trypsin, chymotrypsin and elastase; assay: Metabolic stability in pancreatic enzyme mix (ESMS, SIM of molecular ion); settings: chymotrypsin and elastase 0.025 mg/ml, 100 mM ammoniumbicarbonate pH 8.0, 37° C., 24 h, decrease in SIM signal
Protocol: (§1) The compound is dissolved at a concentration of 1 mg/ml in water. 25 ml of this solution is added to 175 ml of the respective enzyme-solution (resulting in an enzyme:substrate ratio (w/w) of approximately 1:5). The solution is left at 37° C. overnight. 10 ml of the various degradation solutions is analyzed against a corresponding zero-sample using flow injection electrospray mass spectrometry (ESMS) with selected ion monitoring of the molecular ion. If the signal has decreased more than 20% compared to the zero-sample, the remainder of the solution is analyzed by HPLC and mass spectrometry in order to identify the extent and site(s) of degradation precisely.
(§2) Enzymes (trypsin, chymotrypsin, elastase aminopeptidase M and carboxypeptidase Y and B) were all purchased from Boehringer Mannheim GmbH (Mannheim, Germany) […]
(§3) Quantification of the compound (before and after degradation) was done on the API III instrument using single ion monitoring of the molecular ion in question with flow injection of the analyte. […]
(§4) Identification of degradation products furthermore involved the use of plasma desorption mass spectrometry (PDMS) with sample application on nitrocellulose coated targets and standard instrumental settings. The accuracy of the hereby determined masses is generally better than 0.1%. […]

[2] = tested on: Carboxypeptidase mix: carboxypeptidase Y and B; assay: Metabolic stability in carboxypeptidase mix (ESMS, SIM of molecular ion); settings: carboxypeptidase Y and B 0.025 mg/ml, 50 mM ammoniumacetate pH 4.5, 37° C., 24 h, decrease in SIM signal
Protocol: as §1, §2, §3, §4

[3] = Oral bioavailability, pharmacokinetics in fasted Beagle dogs; type: in vivo; settings: intravenous and oral administration in 5% glucose solution
Protocol: The pharmacokinetics of the compound can be investigated in fasted Beagle dogs.
Intravenous and oral administration of the test compound, in 5% glucose solution, was separated by a one weeks washout.
Blood samples were collected immediately before drug administration (time zero) and than 0.08, 0.25, 0.50, 0.75, 1.0, 1.5, 2.0, 3.0, 4.0, 5.0, and 6.0 hours after administration.
The plasma samples were stored frozen (<−18° C.) pending analysis.
An HPLC method with solid phase extraction and UV detection was used for the quantification of the compound in plasma.
The pharmacokinetic parameters for compounds were calculated by non-compartmental methods using the PC based pharmacokinetic software WinNonlin, version 1.1 (Scientific Consulting Inc., Apex, N.C., USA).

[4] = tested on: endogenous growth hormone release; assay: Release of endogenous growth hormone in vivo

Row | oral availability [3] | Molecule | Stability in Pan. Enzyme mix [1] | Stability in Carboxypeptidase mix [2] | ability to release endogenous growth hormone in vivo [4]
1 | – | GHRP-2 | − (Unstable (more than 20% decrease in SIM signal after 24 h in degradation solution)) | − (Unstable (more than 20% decrease in SIM signal after 24 h in degradation solution)) | –
2 | – | C[C@H](NC(=O)[C@@H](Cc1c[nH]c2ccccc12)NC(=O)[C@@H](N)Cc1c[nH]cn1)C(=O)N[C@@H](Cc1c[nH]c2ccccc12)C(=O)N[C@H](Cc1ccccc1)C(=O)N[C@@H](CCCCN)C(N)=O [GHRP-6] (H-H[dW]AW[dF]K-NH2) | − (Unstable (more than 20% decrease in SIM signal after 24 h in degradation solution)) | − (Unstable (more than 20% decrease in SIM signal after 24 h in degradation solution)) | –
3 | about 50% | CN(C)N(C)C(=O)[C@@]1(Cc2ccccc2)CCCN(C(=O)[C@@H](Cc2c[nH]c3ccccc23)NC(=O)C(C)(C)N)C1 [Example 1, 2-Amino-N-[(1R)-2-[(3R)-3-benzyl-3-(N,N′,N′-trimethylhydrazinocarbonyl)piperidin-1-yl]-1-(1H-indol-3-ylmethyl)-2-oxoethyl]-2-methylpropionamide] | – | – | possess the ability to release endogenous growth hormone in vivo

From patent publication US6576648B2, “Compound with growth hormone releasing properties” (Novo Nordisk A/S, priority 1999, dated 2003)
